Experimental data as given in patent publication US20100249121A1, “USE OF TETRAMIC ACID DERIVATIVES FOR C[…]-TR[…]” (priority 2007, published 2010).

Legend:
Assay type in all cases: in vivo
[1] = system: Tomato Yellow Leaf Curl Virus (TYLCV), virus-transferring vector Bemisia argentifolii; experiment: Example 1: field plots of tomatoes treated against the vector, virus infestation scored; details: 72 g of a.i./ha, 200 SC, four applications at 7-day intervals, 25 days after the 4th treatment, TYLCV on tomatoes
Method: In three replications, plots of a size of 7.5 m^2 with tomatoes of the cultivar “Jumbo” are treated against the virus-transferring vector Bemisia argentifolii. Application is carried out using a motor-operated knapsack sprayer. The active compound example (I-2) (240 SC) in a tank mix with 0.186% a.i. soya oil Natur'L Oleo (OL 930) and the commercial standard imidacloprid (200 SC) are applied at the stated application rates. Four applications are carried out at intervals of in each case 7 days using a water application rate of in each case 300 l, 300 l, 500 l and 600 l/ha.
Evaluation is carried out 25 days after the 4th treatment by scoring the virus infestation with the Tomato Yellow Leaf Curl Virus (TYLCV) on the plants.
In the control, 11.7 of 15 plants were infected by the TYLCV.

[2] = system: Tomato Yellow Leaf Curl Virus (TYLCV), virus-transferring vector Bemisia argentifolii; experiment: Example 2: field plots of tomatoes treated against the vector, virus infestation scored; details: 72 g of a.i./ha, 200 SC, three applications at 7-day intervals, 14 days after the 3rd treatment, TYLCV on tomatoes
Method: In three replications, plots of a size of 7.5 m^2 with tomatoes of the cultivar “Jumbo” are treated against the virus-transferring vector Bemisia argentifolii. Application is carried out using a pressurized air-operated knapsack sprayer. The active compound example (I-2) (240 SC) in a tank mix with 0.186% a.i. soya oil Natur'L Oleo (OL 930) and the commercial standard imidacloprid (200 SC) are applied at the stated application rates. Three applications are carried out at intervals of in each case 7 days. The water application rates are 300 l/ha, 400 l/ha and 600 l/ha.
Evaluation is carried out 14 days after the 3rd treatment by scoring the virus infestation with the Tomato Yellow Leaf Curl Virus (TYLCV) on the plants.
All 18 plants in the control were infected by the TYLCV.

[3] = system: Bean Golden Mosaic Virus (BGMV), virus-transferring vector Bemisia argentifolii; experiment: Example 3: field plots of bush beans treated against the vector, virus infestation scored; details: 72 g of a.i./ha, 200 SC, three applications at 7-day intervals, 16 days after the first treatment, BGMV on bush beans
Method: In three replications, plots of a size of 12 m^2 with bush beans of the cultivar “Carioca” are treated against the virus-transferring vector Bemisia argentifolii. Application is carried out using a pressurized air-operated knapsack sprayer. The active compound example (I-2) (240 SC) in a tank mix with 0.186% a.i. soya oil Natur'L Oleo (OL 930) and the commercial standard imidacloprid (200 SC) are applied at the stated application rates. Three applications are carried out at intervals of in each case 7 days. The water application rate is in each case 300 l/ha.
Evaluation is carried out 16 days after the first treatment by scoring the virus infestation with the Bean Golden Mosaic Virus (BGMV) on the plants.
All 10 plants in the control were infected by the BGMV.

[4] = system: Tomato Spotted Wilt Virus (TSWV); experiment: Example 4: field plots of tomatoes, tank mix versus single actives, virus infection scored; details: 72 g of a.i./ha, SC 200 on its own, four applications at 7-day intervals, 25 days after the treatment
Description: The expected activity for a given combination of two active compounds can be calculated according to S. R. Colby, Weeds 15 (1967), 20-22 as follows:
If • X is the degree of control, expressed in % of the untreated control, when using the active compound A at an application rate of m g/ha or in a concentration of m ppm, • Y is the degree of control, expressed in % of the untreated control, when using the active compound B at an application rate of n g/ha or in a concentration of n ppm and • E is the degree of control, expressed in % of the untreated control, when using the active compounds A and B at application rates of m and n g/ha or in a concentration of m and n ppm, then
If the actual degree of control is greater than the calculated degree of control, the control of the combination is superadditive, i.e. a synergistic effect is present. In this case, the degree of control actually observed must be greater than the value for the expected kill rate (E) calculated using the formula given above.
After the desired period of time, the control in % is determined. 100% means that no plants have been infected by viruses; 0% means that all plants have been infected by viruses.
In three replications, plots of a size of 7.5 m^2 with tomatoes of the cultivar “Jumbo” are treated against the virus-transferring vector Bemisia argentifolii using a compressed air-operated sprayer. […]

With `O=[N+]([O-])/N=C1\NCCN1Cc1ccc(Cl)nc1` [imidacloprid] the “Degree of control according to Abbott (%) 25 d” value [1] was 40.0%, the “Degree of control according to Abbott (%) 14 d” value [2] was 33% and the “Degree of control according to Abbott (%) 16 d” value [3] was 60.0%. The “Degree of control according to Abbott (%) 25 d” value [4] was 80%.
